The test system of experiment [1] is ATGL. The experiment is described as follows: ATGL in HepG2 cells after 2-DG treatment. It is filed as cell-based, human. The procedure:
HepG2 cell type was cultured in RPMI medium with 10% FBS and 1% Pen/Strep on collagen-coated plates. Lipofectamine RNAiMAX reagent mediated siRNA (100 nM) was delivered to cells at the suspended state for 48 h. Different from HEK cells, it is not necessary to induce LDs via OA treatment in that there exist LDs in the HepG2 cell type at normal culture medium. The inventors treated HepG2 cells with 10 µM PF04620110 (DGAT1 inhibitor, Sigma) & PF-06424439 (DGAT2 inhibitor, Sigma) for 48 hours or with 5 µg/mL BFA (B5936, Sigma) for 6 hours to deplete LDs and intact Golgi in the HepG2 cell type respectively before glucose deprivation. […]
Total RNA was extracted from adipose depots, liver or in vitro cell cultures via Trizol reagent (Invitrogen) according to the manufacturer's instructions. […] Quantitative PCR was performed using KAPA SYBR FAST Universal kit (Roche, KK4618) on ViiA7 (Applied Biosystems) and the relative transcript levels were normalized to […] expression via ΔΔCt method. […]
(§1) Adipose depots, liver pieces, differentiated iBAs, HepG2, HEK293T and HEK293-AAV cell types were homogenized in RIPA buffer (50 mM Tris-HCl pH 7.4, 150 mM NaCl, 2 mM EDTA, 1.0% Triton X100, 0.5% sodium deoxycholate) with protease inhibitors (Complete, Roche) and phosphatase inhibitors (Halt phosphatase inhibitor cocktail, ThermoFisher). […] The concentration of WCE was determined by DC Protein Assay (Bio-Rad). […]

Experiment [2] relates to C57BL/6N male mice. The experiment can be described thus: Glucose deprivation by 2-DG injection in mice. The class given is in vivo, mouse. As to the method: All animal experiments were permitted by the Veterinary office of the Canton of Zurich. Both female and male mice were used in the experiments, and they were housed 2-5 littermates per cage in ventilated cages at standard housing conditions (22°C, 12 h reversed light/dark cycle, dark phase starting at 7 am) with normal chow diet (18% proteins, 4.5% fibers, 4.5% fat, 6.3% ashes, Provimi Kliba SA) and water. Health status of all the mouse lines were monitored regularly based on FELASA guidelines. 8-10 weeks old C57BL/6N male mice were fasted for 24 h or injected with 2-DG (2 g/kg BW) to induce glucose deprivation for different durations. Female ROSA26-LSL-spCas9 mice (The Jackson Lab strain) were intravenously injected with AAV8-U6-Pi4kb gRNAs-TBG-Cre, AAV8-U6-Sacm1l gRNAs-TBG-Cre, AAV8-U6-Cu/7 gRNAs-TBG-Cre and AAV8-U6-Fbxw8 gRNAs-TBG-Cre virus pools to express six gRNAs targeting individual gene and CAS9 in the liver at a dose of 3×10^11 genome copies/mouse. Two weeks later, livers were harvested for protein and RNA extraction after 6 hours fasting. To determine liver TG levels under NCD feeding condition, 4 weeks after AAV administration livers were harvested after 6 hours fasting. Also 4 weeks after AAV administration, the liver specific Cul7&Fbxw8 double knockout mice were injected with 2-DG (2 g/kg BW) to induce 1 hour glucose deprivation prior to liver harvesting for protein extraction.
Adipose depots, liver pieces, differentiated iBAs, HepG2, HEK293T and HEK293-AAV cell types were homogenized in RIPA buffer (50 mM Tris-HCl pH 7.4, 150 mM NaCl, 2 mM EDTA, 1.0% Triton X100, 0.5% sodium deoxycholate) with protease inhibitors (Complete, Roche) and phosphatase inhibitors (Halt phosphatase inhibitor cocktail, ThermoFisher). The homogenates were centrifuged at 12,000×g for 10 min at 4°C to remove debris and collect whole cell extract (WCE). The concentration of WCE was determined by DC Protein Assay (Bio-Rad). After boiling the sample with Lämmeli buffer at 95°C for 5 min, equal amount of proteins was loaded and separated on 12% SDS-PAGE. The proteins were transferred to nitrocellulose membrane and blotted by ATGL (1:1000, Cell Signaling), CGI-58 (1:1000, Proteintech), phospho-HSL(Ser660) (1:1000, Cell Signaling), PLIN1 (1:1000, Cell Signaling), HSL (1:1000, Cell Signaling), γ-tubulin (1:10000, Sigma), FLAG (1:10000, Sigma; 1:1000, Cell Signaling), MGL (1:1000, Abcam), HA (1:1000, Cell signaling), FBXW8 (1:100, Santa Cruz; 1:1000, Sigma), CUL7 (1:100, Santa Cruz), HSP90 (1:1000, Cell Signaling), K48 polyubiquitin (1:1000, Cell signaling), PI4KB (1:1000, Sigma), SACM1L (1:1000, Sigma), AKT1 (1:1000, Cell Signaling), phospho-AKT1(Ser473) (1:1000, Cell Signaling), TGN46 (1:1000, Abcam), MAOA (1:1000, Abcam), PLIN2 (1:1000, Abcam), PMP70 (1:10000, Sigma), Calnexin (1:1000, Cell Signaling), ARF1 (1:1000, Invitrogen), GAPDH (1:1000, Cell Signaling), RAB7 (1:1000, Cell Signaling), alpha 1 Sodium Potassium ATPase (1:1000, Abcam), Cleaved Caspase-3 (1:1000, Cell Signaling), phospho-AMPKα (Thr172) (1:1000, Cell Signaling), AMPKα (1:1000, Cell Signaling) and GM130 (1:1000, Proteintech). The primay antibody signal was visualized by HRP-conjugated secondary antibodies (1:5000, Millipore) and the ImageQuant system (GE Healthcare Life Sciences).
For mouse insulin measurement, plasma was collected at different timepoints after 2-DG administration in wild type mice. 5 µl plasma sample was used to determine insulin levels via Ultra-sensitive mouse insulin ELISA kit (Crystal Chem, Cat# 90080) according to the manufacturer's protocol. The absorbance was measured via Synergy Gen5 Platereader at 450/630 nm. 2 µl plasma sample was used to determine glucose levels via Glucose Assay Kit (Sigma, MAK263) according to the manufacturer's protocol. The absorbance was read at 570 nm in Synergy Gen5 Platereader.
Plasma collected from mice under different conditions was used to determine levels of lipolysis and liver injury. […]

Experiment [3] deals with ATGL. The experiment can be described thus: ATGL response to glucose deprivation in HepG2 cells after BFA treatment. The class given is cell-based, human. Conditions: HepG2, 5 µg/mL BFA for 6 hours before glucose deprivation. The procedure:
HepG2 cell type was cultured in RPMI medium with 10% FBS and 1% Pen/Strep on collagen-coated plates. Lipofectamine RNAiMAX reagent mediated siRNA (100 nM) was delivered to cells at the suspended state for 48 h. Different from HEK cells, it is not necessary to induce LDs via OA treatment in that there exist LDs in the HepG2 cell type at normal culture medium. The inventors treated HepG2 cells with 10 µM PF04620110 (DGAT1 inhibitor, Sigma) & PF-06424439 (DGAT2 inhibitor, Sigma) for 48 hours or with 5 µg/mL BFA (B5936, Sigma) for 6 hours to deplete LDs and intact Golgi in the HepG2 cell type respectively before glucose deprivation. To deprive glucose in the HepG2 cell type, we either added 2-DG at indicated concentrations to the culture medium or refresh cells with RPMI medium containing different glucose concentrations prepared from the same RPMI medium (Gibco, 11879020).
as §1

Experiment [4] deals with ATGL. The experiment can be described thus: Block of proteasome mediated degradation, cellular ATGL protein. It is filed as cell-based. Conditions: proteasome blocked; Chloroquine (autophagy) had no such effect.
Where [5] appears, read: only 1 hour after 2-DG administration.

Where a SMILES comes first, the peptide text is derived from it. The star is where a group is joined. Cbz = O=C(OCc1ccccc1)*

For `O=CC[C@@H](O)[C@H](O)[C@H](O)CO` [2-DG, 2-Deoxy-D-glucose], in experiment [1] (HepG2, 50 mM 2-DG (Fig. 2b)), the ATGL protein abundance result is on record as “strongly induced”. Further, the ATGL transcript levels entry in experiment [1] (HepG2, 2-DG treatment) is reported as “without changing”. The “lipolysis (plasma FFA levels)” value in experiment [2] (2-DG 2 g/kg BW, 1 h, 6 h, 12 h (Fig. 1c)) is “significantly induced”. Further, in experiment [2] (2-DG for 1 hour, not in Cul7 and Fbxw8 double knockout (Fig. 6c)), the “ATGL levels in livers of wild-type mice” value is listed as “upregulation”. In addition, the “ATGL protein levels in the liver and iBAT” value in experiment [2] (1 hour after 2-DG) is “increased”. Also, the “ATGL protein levels in the liver, iBAT, iWAT and gWAT” value in experiment [2] (longer glucose deprivation (6 h, 12 h after 2-DG)) was “further accumulation”. In addition, in experiment [2] (setting [5]), the “HSL phosphorylation in white adipose tissues” value is on record as “upregulation” and the plasma insulin levels result is “reduction”.

With `C[C@H]1CCC/C=C/[C@@H]2C[C@H](O)C[C@H]2[C@H](O)/C=C/C(=O)O1` [BFA, Brefeldin A], the “intracellular ATGL levels upon glucose deprivation” value in experiment [3] is “failed to upregulate”.

In the case of `CC(C)C[C@@H](C=O)NC(=O)[C@H](CC(C)C)NC(=O)[C@H](CC(C)C)NC(=O)OCc1ccccc1` [MG132] (Cbz-Leu-Leu-Leu-aldehyde), the “cellular ATGL protein” value in experiment [4] was “accumulation”.

The values are drawn from patent EP4623912A1, “A METHOD FOR DEFATTENING A STEATOTIC LIVER EX VIVO” (ETH Zurich, priority 2024, dated 2025).
